Reference: publication PMC12040169 (PLOS Biology, 2025)

Test: in vitro
Settings: human, hela cells, % viability

| Structure (SMILES) | viability at 28.5 h, 10 µM [%] |
| --- | --- |
| COc1ccc(-c2cc([C@H]3CN4CC[C@H]3C[C@@H]4CNC(=O)c3ccco3)n(C)n2)cc1 [CBK289099] | 113 |
| Cn1nc(-c2cccs2)cc1[C@H]1CN2CC[C@H]1C[C@@H]2CNS(C)(=O)=O [CBK289102] | 93.5 |
| CC(C)NC(=O)NC[C@H]1C[C@@H]2CCN1C[C@@H]2c1cc(-c2cccs2)nn1C [CBK289103] | 90 |
| Cn1nc(-c2cccs2)cc1[C@H]1CN2CC[C@H]1C[C@@H]2CNC(=O)Nc1ccccc1 [CBK289104] | 89 |
| CCNC(=O)NC[C@H]1C[C@@H]2CCN1C[C@@H]2c1cc(-c2ccccc2OC)nn1C [CBK289105] | 118 |
| Cn1nc(C2CCCCC2)cc1[C@H]1CN2CC[C@H]1C[C@@H]2CNC(=O)c1ccco1 [CBK289106] | 95.3 |
| Cn1nc(-c2ccc(F)cc2)cc1[C@H]1CN2CC[C@H]1C[C@@H]2CNC(=O)N1CCOCC1 [CBK289108] | 116 |
| CCNC(=O)NC[C@H]1C[C@@H]2CCN1C[C@@H]2c1cc(-c2ccc(F)cc2)nn1C [CBK289110] | 88 |
| CC(C)NC(=O)NC[C@H]1C[C@@H]2CC[N@]1C[C@@H]2CN1CCN(c2ccccn2)CC1 [CBK289112] | 105 |
| O=C(NC[C@H]1C[C@@H]2CC[N@]1C[C@@H]2CN1CCN(c2ccccn2)CC1)Nc1ccsc1 [CBK289113] | 101 |
| O=C(NC[C@H]1C[C@@H]2CC[N@]1C[C@@H]2CN1CCN(c2ccccn2)CC1)Nc1ccccc1 [CBK289114] | 106 |
| COc1ccccc1-c1cc([C@H]2CN3CC[C@H]2C[C@@H]3CNC(=O)c2ccco2)nc(C)n1 [CBK289119] | 105 |
| Cc1nc(C2CCCC2)cc([C@H]2CN3CC[C@H]2C[C@@H]3CNC(=O)c2ccco2)n1 [CBK289120] | 109 |
| COCC(=O)NC[C@H]1C[C@@H]2CCN1C[C@@H]2c1cc(-c2ccccc2)nc(C)n1 [CBK289123] | 89.3 |
| CCNC(=O)NC[C@H]1C[C@@H]2CCN1C[C@@H]2c1cc(-c2ccccc2)nc(C)n1 [CBK289125] | 116 |
| CC[C@H]1CN(C(=O)C2CC2)CC[C@H]1CC(=O)N(C)CC#N [CBK289132] | 85.9 |
| CC[C@H]1CN(C(=O)N2CCOCC2)CC[C@H]1CC(=O)NCCOC [CBK289134] | 100 |
| CC[C@H]1CN(C(=O)c2ccnc(Cl)c2)CC[C@H]1CC(=O)O [CBK289139] | 92 |
| CC(C)(C)NC(=O)C[C@@H]1CCNC[C@@H]1Cc1cc(-c2ccccc2)on1 [CBK289145] | 86 |

| Structure (SMILES) | viability at 28.5 h, 10 µM [%] |
| --- | --- |
| O=C(C[C@@H]1CCNC[C@@H]1Cc1cc(-c2ccccc2)on1)NC1CC1 [CBK289146] | 88 |
| O=C(C[C@@H]1CCNC[C@@H]1Cc1cc(-c2ccccc2)on1)N1CCN(c2ccccc2)CC1 [CBK289148] | 83.2 |
| CN1CCN(C(=O)C[C@@H]2CCNC[C@@H]2Cc2cc(CC3CCCCC3)on2)CC1 [CBK289151] | 84.3 |
| COc1ccc(-c2cc(C[C@H]3CNCC[C@H]3CC(=O)N3CCN(C)CC3)no2)cc1 [CBK289152] | 83.8 |
| O=C(C[C@@H]1CCNC[C@@H]1Cc1cc(CN2CCCCC2)on1)N1CCCCC1 [CBK289153] | 86.8 |
| COc1ccc2c(c1)CCN=C2C[C@H]1CN(C(=O)NC(C)C)CC[C@H]1CC(=O)O [CBK289156] | 90 |
| COc1ccc2c(c1)C(C[C@H]1CN(C(=O)C3CC3)CC[C@H]1CC(=O)O)=NCC2 [CBK289157] | 85.7 |
| CN(C)c1ccc(C(=O)N2CC[C@@H](CC(=O)O)[C@@H](CC3=NCCc4ccccc43)C2)cc1 [CBK289159] | 94.8 |
| O=C(O)C[C@@H]1CCN(C(=O)c2ccc3c(c2)OCO3)C[C@@H]1CC1=NCCc2ccccc21 [CBK289160] | 110 |
| Cc1ccc2c(c1)C(C[C@H]1CN(C(=O)c3ccco3)CC[C@H]1CC(=O)O)=NCC2 [CBK289162] | 79.1 |
| COc1cccc2c1CCN=C2C[C@H]1CN(C(=O)C2CC2)CC[C@H]1CC(=O)O [CBK289164] | 94.5 |
| Cc1nn(-c2ccccn2)c(C)c1[C@@H]1C=C[C@@H](NC(=O)NC(C)C)C1 [CBK289168] | 91.4 |
| CCNC(=O)N[C@@H]1C=C[C@@H](c2c(C)nn(CCC#N)c2C)C1 [CBK289171] | 111 |
| Cc1nn(CCC#N)c(C)c1[C@@H]1C=C[C@@H](NC(=O)NC(C)C)C1 [CBK289172] | 89.2 |
| O=C(Nc1ccc2n(c1=O)C[C@H]1C[C@@H]2CN(C(=O)COc2ccccc2)C1)C1CCCCC1 [CBK289175] | 91.9 |
| N#Cc1ccc(C(=O)N2C[C@@H]3C[C@H](C2)c2ccc(-c4cccs4)c(=O)n2C3)cc1 [CBK289180] | 86 |
| Cc1ccccc1-c1ccc2n(c1=O)C[C@H]1C[C@@H]2CN(C(=O)CCC(=O)O)C1 [CBK289181] | 111 |
| O=C(NC1CCCCC1)N1C[C@@H]2C[C@H](C1)c1ccc(-c3cccnc3)c(=O)n1C2 [CBK289183] | 93.6 |
